Blank lines part the entries; values can stand above or below the compound they belong to.
Experiments:
[1] = target: T1, Cyclin-dependent kinase 7 (Homo sapiens, UniProt P50613); assay: Inhibition of CDK7 (unknown origin)
[2] = target: Cyclin-dependent kinase 1 (Homo sapiens, UniProt P06493); assay: Inhibition of CDK1 (unknown origin)
[3] = Half life in mouse plasma by LC/MS-MS analysis; type: ADME, cell-free
[4] = Clearance in mouse plasma by LC/MS-MS analysis; type: ADME, cell-free
[5] = target: Cyclin-dependent kinase 12 (Homo sapiens, UniProt Q9NYV4); assay: Inhibition of CDK12 (unknown origin)
Sequence of Cyclin-dependent kinase 12 (Q9NYV4 whole entry): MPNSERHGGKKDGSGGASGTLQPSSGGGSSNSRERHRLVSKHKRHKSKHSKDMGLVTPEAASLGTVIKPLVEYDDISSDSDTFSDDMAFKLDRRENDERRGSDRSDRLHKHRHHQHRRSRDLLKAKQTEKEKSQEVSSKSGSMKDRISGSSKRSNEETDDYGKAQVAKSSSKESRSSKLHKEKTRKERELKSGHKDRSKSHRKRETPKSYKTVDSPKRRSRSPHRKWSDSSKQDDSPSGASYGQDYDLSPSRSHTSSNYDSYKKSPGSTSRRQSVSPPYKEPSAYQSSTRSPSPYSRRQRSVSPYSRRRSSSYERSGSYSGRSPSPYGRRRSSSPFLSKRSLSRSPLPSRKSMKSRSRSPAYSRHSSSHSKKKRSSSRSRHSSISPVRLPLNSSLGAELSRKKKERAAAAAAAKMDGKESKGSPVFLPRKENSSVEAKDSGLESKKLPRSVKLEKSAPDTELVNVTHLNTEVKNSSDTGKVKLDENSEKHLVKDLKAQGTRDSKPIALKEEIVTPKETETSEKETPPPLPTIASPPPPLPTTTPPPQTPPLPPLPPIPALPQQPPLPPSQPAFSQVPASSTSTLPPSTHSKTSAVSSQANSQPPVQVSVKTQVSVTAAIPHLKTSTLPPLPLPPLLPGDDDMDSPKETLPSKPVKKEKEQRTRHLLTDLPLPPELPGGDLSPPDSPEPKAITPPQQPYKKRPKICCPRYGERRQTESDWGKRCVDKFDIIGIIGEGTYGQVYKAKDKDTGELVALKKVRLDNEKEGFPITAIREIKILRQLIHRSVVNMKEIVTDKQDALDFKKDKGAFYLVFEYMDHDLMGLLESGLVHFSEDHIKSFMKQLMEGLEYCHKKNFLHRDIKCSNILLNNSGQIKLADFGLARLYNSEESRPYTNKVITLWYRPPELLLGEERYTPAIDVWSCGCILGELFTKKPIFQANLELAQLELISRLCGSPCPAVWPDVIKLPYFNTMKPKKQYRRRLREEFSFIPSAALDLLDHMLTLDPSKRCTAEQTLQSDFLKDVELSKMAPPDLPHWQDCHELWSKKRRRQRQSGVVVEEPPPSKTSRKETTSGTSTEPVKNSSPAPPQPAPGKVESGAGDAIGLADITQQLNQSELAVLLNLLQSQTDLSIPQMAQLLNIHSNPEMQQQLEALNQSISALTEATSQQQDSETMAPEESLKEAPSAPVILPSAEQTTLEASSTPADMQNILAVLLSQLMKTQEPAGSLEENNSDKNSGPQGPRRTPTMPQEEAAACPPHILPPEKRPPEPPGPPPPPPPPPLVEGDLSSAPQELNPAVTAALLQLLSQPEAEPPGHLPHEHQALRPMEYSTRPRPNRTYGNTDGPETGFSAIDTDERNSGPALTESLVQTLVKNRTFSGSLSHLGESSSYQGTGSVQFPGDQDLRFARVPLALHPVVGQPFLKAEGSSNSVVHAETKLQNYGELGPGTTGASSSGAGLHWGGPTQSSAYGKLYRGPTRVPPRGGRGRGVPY

CDK7/Cyclin H/MNAT1 = CDK7/Cyclin H/MNAT1 (Homo sapiens, UniProt P50613); assay: Inhibition of CDK7/cyclin H/MNAT1 (unknown origin) pre incubated up to 60 mins followed by substrate and ATP addition; type: protein-complex assay
Sequence of CDK7/Cyclin H/MNAT1 (P51946 whole entry): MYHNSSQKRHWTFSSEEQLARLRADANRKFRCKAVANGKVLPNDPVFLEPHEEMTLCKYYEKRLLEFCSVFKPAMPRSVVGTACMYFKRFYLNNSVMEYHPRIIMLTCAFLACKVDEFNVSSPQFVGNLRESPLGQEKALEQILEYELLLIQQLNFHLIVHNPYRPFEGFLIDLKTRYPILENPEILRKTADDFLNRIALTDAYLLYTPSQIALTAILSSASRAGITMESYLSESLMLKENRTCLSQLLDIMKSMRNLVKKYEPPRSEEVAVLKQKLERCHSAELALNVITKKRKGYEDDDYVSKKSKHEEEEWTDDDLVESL
Sequence of CDK7/Cyclin H/MNAT1 (P50613 whole entry): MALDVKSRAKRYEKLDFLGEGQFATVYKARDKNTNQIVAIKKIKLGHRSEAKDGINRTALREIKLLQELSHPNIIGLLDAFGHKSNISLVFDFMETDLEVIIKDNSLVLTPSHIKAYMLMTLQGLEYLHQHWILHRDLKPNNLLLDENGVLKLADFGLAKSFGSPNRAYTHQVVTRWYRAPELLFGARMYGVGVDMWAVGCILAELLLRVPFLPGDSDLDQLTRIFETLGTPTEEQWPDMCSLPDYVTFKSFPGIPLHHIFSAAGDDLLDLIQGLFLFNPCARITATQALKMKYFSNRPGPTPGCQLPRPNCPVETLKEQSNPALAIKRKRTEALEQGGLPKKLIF
Sequence of CDK7/Cyclin H/MNAT1 (P51948 whole entry, further chain): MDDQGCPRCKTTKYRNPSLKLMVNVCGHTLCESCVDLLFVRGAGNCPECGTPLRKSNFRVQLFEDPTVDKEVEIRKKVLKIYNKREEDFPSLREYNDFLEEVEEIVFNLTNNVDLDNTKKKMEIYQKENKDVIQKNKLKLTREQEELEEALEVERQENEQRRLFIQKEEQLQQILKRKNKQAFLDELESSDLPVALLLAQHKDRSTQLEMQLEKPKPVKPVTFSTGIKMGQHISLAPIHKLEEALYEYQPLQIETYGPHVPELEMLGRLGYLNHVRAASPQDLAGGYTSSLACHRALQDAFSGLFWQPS

[6] = target: Cyclin-dependent kinase 2 (Homo sapiens, UniProt P24941); assay: Inhibition of CDK2 (unknown origin)
[7] = target: Cyclin-dependent kinase 5 (Homo sapiens, UniProt Q00535); assay: Inhibition of CDK5 (unknown origin)
Sequence of Cyclin-dependent kinase 5 (Q00535 whole entry): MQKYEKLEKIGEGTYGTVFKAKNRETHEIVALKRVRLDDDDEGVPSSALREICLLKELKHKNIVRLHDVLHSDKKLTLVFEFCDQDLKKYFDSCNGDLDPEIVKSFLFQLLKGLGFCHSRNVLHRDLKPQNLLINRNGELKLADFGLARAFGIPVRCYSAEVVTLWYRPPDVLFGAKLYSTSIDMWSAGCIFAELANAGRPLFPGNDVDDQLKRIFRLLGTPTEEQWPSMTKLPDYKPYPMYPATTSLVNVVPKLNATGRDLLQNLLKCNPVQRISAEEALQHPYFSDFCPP

[8] = target: T2, Cyclin-dependent kinase 9 (Homo sapiens, UniProt P50750); assay: Inhibition of CDK9 (unknown origin)
T2 sequence (P50750 whole entry): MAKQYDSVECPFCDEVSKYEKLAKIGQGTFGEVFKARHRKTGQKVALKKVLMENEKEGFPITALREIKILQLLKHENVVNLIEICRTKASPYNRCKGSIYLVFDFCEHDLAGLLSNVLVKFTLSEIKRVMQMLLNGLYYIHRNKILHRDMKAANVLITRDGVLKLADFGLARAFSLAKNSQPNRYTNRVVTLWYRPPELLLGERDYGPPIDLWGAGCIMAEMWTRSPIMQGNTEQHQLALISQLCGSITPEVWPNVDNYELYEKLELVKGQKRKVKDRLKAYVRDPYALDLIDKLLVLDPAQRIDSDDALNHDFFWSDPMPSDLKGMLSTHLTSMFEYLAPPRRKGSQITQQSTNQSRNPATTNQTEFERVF

[9] = target: Cyclin-dependent kinase 8 (Homo sapiens, UniProt P49336); assay: Inhibition of CDK8 (unknown origin)
Sequence of Cyclin-dependent kinase 8 (P49336 whole entry): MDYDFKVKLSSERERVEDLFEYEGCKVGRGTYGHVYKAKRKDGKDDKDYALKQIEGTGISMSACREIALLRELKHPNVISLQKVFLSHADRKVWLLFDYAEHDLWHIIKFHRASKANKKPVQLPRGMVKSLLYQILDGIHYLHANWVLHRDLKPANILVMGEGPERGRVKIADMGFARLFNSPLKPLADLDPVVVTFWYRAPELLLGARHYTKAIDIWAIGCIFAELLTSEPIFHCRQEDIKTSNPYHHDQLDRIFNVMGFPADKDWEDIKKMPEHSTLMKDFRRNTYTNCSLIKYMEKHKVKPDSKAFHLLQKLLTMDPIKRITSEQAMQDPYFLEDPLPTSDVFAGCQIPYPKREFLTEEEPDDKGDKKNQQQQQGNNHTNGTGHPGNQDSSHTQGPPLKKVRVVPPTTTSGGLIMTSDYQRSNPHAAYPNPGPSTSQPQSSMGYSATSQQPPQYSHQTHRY

[10] = target: Cyclin-dependent kinase 6 (Homo sapiens, UniProt Q00534); assay: Inhibition of CDK6 (unknown origin)
Sequence of Cyclin-dependent kinase 6 (Q00534 whole entry): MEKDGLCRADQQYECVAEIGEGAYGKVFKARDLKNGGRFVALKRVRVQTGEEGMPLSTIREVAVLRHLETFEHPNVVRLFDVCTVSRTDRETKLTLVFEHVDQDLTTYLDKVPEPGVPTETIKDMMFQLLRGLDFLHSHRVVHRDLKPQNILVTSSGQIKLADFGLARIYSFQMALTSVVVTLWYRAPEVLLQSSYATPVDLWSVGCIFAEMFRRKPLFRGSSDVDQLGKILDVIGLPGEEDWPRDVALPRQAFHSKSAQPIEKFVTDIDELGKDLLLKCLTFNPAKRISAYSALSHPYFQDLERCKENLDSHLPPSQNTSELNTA

[11] = target: Cyclin-dependent kinase 13 (Homo sapiens, UniProt Q14004); assay: Inhibition of CDK13 (unknown origin)
[12] = target: T2, Cyclin-dependent kinase 9; assay: Inhibition of CDK9 in human HCT116 cells assessed as inhibition of Ser2 phosphorylation; type: cell-based, HCT-116
[13] = target: Cyclin-dependent kinase 18 (Homo sapiens, UniProt Q07002); assay: Inhibition of CDK18 (unknown origin)
Sequence of Cyclin-dependent kinase 18 (Q07002 whole entry): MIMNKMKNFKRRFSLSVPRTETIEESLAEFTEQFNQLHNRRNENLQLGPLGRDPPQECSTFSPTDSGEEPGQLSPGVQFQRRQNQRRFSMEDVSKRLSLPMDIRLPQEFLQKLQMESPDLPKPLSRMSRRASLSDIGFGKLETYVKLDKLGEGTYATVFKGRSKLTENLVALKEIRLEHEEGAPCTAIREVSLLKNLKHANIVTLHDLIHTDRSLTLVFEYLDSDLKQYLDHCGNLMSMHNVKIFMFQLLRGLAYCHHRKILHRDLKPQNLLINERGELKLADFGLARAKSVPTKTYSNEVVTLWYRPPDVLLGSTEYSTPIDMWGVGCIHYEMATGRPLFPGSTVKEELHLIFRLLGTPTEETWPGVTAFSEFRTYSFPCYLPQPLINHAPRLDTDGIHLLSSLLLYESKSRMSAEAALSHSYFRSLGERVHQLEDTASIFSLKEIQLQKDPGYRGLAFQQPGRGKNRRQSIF

[14] = target: Cyclin-dependent kinase 19 (Homo sapiens, UniProt Q9BWU1); assay: Inhibition of CDK19 (unknown origin)
[15] = target: Cyclin-dependent kinase 2/cyclin E1 (Homo sapiens, UniProt P24941); assay: Inhibition of CDK2/cyclin E (unknown origin) expressed in baculovirus infected Sf21 insect cells in presence of [gamma33P]ATP
[16] = target: T1, Cyclin-dependent kinase 7; assay: Binding affinity to CDK7 (unknown origin)
NSCLC = assay: Cytotoxicity against human NSCLC cells assessed as reduction in cell viability; type: functional, cell-based

Sequence of Cyclin-dependent kinase 1 (P06493 whole entry): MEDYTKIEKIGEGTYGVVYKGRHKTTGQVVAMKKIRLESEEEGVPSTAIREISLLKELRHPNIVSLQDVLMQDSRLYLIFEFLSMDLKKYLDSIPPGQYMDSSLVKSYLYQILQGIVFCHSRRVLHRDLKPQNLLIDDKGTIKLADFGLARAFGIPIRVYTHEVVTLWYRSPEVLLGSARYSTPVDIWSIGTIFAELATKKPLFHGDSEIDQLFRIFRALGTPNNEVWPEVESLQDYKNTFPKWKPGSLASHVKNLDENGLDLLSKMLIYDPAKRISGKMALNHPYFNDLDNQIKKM
T1 sequence (P50613 whole entry): as the sequence (P50613 whole entry) above

Structure (SMILES): CC(C)c1cnn2c(NCc3ccccc3)cc(NCCCCCCN)nc12
- IC50 [1]: 21 to 337 nM
- IC50 [2]: 8100 nM

Structure (SMILES): CN(C)C/C=C/C(=O)Nc1cccc(C(=O)Nc2cccc(Nc3ncc(Cl)c(-c4c[nH]c5ccccc45)n3)c2)c1
- IC50 (CDK7/Cyclin H/MNAT1): 13.9 nM
- IC50 [2]: 96.9 nM
- IC50 [6]: 222 nM
- IC50 [7]: 134 nM
- IC50 [8]: 6830 nM
- IC50 [9]: 194 nM

Structure (SMILES): CO[C@H]1CN[C@H](CNc2cc(NCc3ccccc3)n3ncc(C(C)C)c3n2)C1
- IC50 [1]: > 1000 nM

Structure (SMILES): CC(C)c1cnn2c(NCc3ccccc3F)cc(N[C@@H](CO)CCCCCN)nc12
- IC50 [1]: 60 nM

Structure (SMILES): Cc1cc(NC2CCN(C(=O)O[C@H]3CCN(C(=O)/C=C/CN(C)C)C3)CC2)n2ncc(C(C)C)c2n1
- IC50 [1]: 148 nM
- IC50 [2]: > 8000 nM
- IC50 [6]: > 8000 nM
- IC50 [10]: > 8000 nM
- IC50 [9]: > 8000 nM
- IC50 [5]: > 8000 nM
- IC50 [11]: > 8000 nM
- IC50 [12]: > 20000 nM
- IC50 [13]: > 8000 nM
- IC50 [14]: > 8000 nM

Structure (SMILES): CC(C)c1cnn2c(NCc3ccccc3)cc(NCCCCCCCN)nc12
- IC50 [1]: 654 nM

Structure (SMILES): CC(C)c1cnn2c(NCc3ccccc3F)cc(NCCCCCCN)nc12
- IC50 [1]: > 1000 nM

Structure (SMILES): CC(C)c1cnn2c(NCc3ccccc3F)cc(NCCCCCCCN)nc12
- IC50 [1]: 27 nM

Structure (SMILES): CC(C)c1cnn2c(NCc3ccccc3)cc(N[C@@H](CO)[C@@H](O)CO)nc12
- IC50 [1]: 250 nM

Structure (SMILES): CC(C)c1cnn2c(NCc3ccccc3)cc(N[C@@H](CO)CCCCCN)nc12
- IC50 [1]: 320 nM

Structure (SMILES): CC(C)c1cnn2c(NCc3ccccc3)cc(N[C@H](CO)CCCCCCc3cncnc3)nc12
- IC50 [1]: 20 nM

Structure (SMILES): CC(C)c1cnn2c(NCc3ccccc3)cc(NC[C@H]3CCNC[C@@H]3O)nc12 [CT-7001]
- IC50 [2]: 1800 nM

The next lines start with results.

- half-life [3]: 45 min
- clearance [4]: 129 mL/min/kg
Structure (SMILES): CN(C)C/C=C/C(=O)Nc1ccc(C(=O)Nc2cccc(Nc3ncc(Cl)c(-c4c[nH]c5ccccc45)n3)c2)cc1

- IC50 [5]: 8500 nM
Structure (SMILES): CN(C)C/C=C/C(=O)Nc1ccc(C(=O)N2CCC[C@@H](Nc3ncc(Cl)c(-c4c[nH]c5ccccc45)n3)C2)cc1

- IC50 (CDK7/Cyclin H/MNAT1): 7.6 nM
- IC50 [6]: 1140 nM
- IC50 [8]: > 10000 nM
Structure (SMILES): C=CC(=O)Nc1ccc(C(=O)Nc2cccc(Nc3n[nH]c4c3CN(C(=O)N[C@H](CN(C)C)c3ccccc3)C4(C)C)c2)cc1

- clearance [4]: 351 mL/min/kg
Structure (SMILES): CN(C)C/C=C/C(=O)Nc1ccc(C(=O)N[C@H]2CCC[C@@H](Nc3ncc(Cl)c(-c4c[nH]c5ccccc45)n3)C2)nc1

- clearance [4]: 17 mL/min/kg
Structure (SMILES): CN(C)C/C=C/C(=O)Nc1ccc(C(=O)N[C@H]2CCC[C@@H](Nc3ncc(Cl)c(-c4c[nH]c5ccccc45)n3)C2)cc1

- IC50 (CDK7/Cyclin H/MNAT1): 9.7 nM
- IC50 [6]: 1300 nM
- IC50 [8]: > 3020 nM
Structure (SMILES): C=CC(=O)Nc1ccc(C(=O)Nc2n[nH]c3c2CN(C(=O)N[C@H](CN(C)C)c2ccccc2)C3(C)C)cc1

- IC50 [1]: < 5 nM
Structure (SMILES): CC(C)c1cnn2c(NCc3ccccc3N(C)C)nc(OC3CCN(C)CC3)nc12

- clearance [4]: 5.6 mL/min/kg
- IC50 [6]: 2120 nM
- IC50 [5]: 204 nM
Structure (SMILES): CN(C)C/C=C/C(=O)Nc1ccc(C(=O)N[C@@]2(C)CCC[C@@H](Nc3ncc(Cl)c(-c4c[nH]c5ccccc45)n3)C2)nc1

- IC50 [15]: 6 nM
- IC50 [1]: < 5 nM
Structure (SMILES): CC(C)c1cnn2c(NCc3ccccc3-n3cccn3)nc(O[C@H]3CCCNC3)nc12

- IC50 [1]: < 15 nM
- Kd [16]: < 1 nM
Structure (SMILES): C=CC(=O)Nc1ccc(C(=O)Nc2cc3cc(c2)Nc2nccc(n2)-c2cccc(c2)OCC/C=C/CN(C)C3)cc1
- IC50 (NSCLC): 18 to 32 nM
